Where two headings read alike, the source gives them in different places.
Assays:
Assay type in all cases: in vivo
[1] = system: Zea mays (corn) (ZEAMX); test: Post-emergence damage of crop plants; conditions: post-emergence application
Protocol: (§1) Seeds of monocotyledonous and dicotyledonous harmful plants and seeds of corn, soybean and wheat are placed into sandy loam in cardboard pots, covered with soil and grown in the greenhouse under good growth conditions. Two to three weeks after sowing the harmful plants and the crop plants are treated in the three-leaf stage. The compounds according to the invention and the prior-art compounds, formulated as wettable powders or emulsion concentrates, are sprayed onto the green plant parts at an application rate of 600 to 800 l of water/ha (converted) in one of the dosages given in tables 1 to 10. After the test plants have remained in the greenhouse under optimum growth conditions for 3 to 4 weeks, the effect of the compounds is rated in comparison to compounds disclosed in the prior art.

[2] = system: Stellaria media (STEME); test: Post-emergence action against harmful plants; conditions: post-emergence application, 80 g of a.i./ha
Protocol: as §1

[3] = system: Matricaria inodora (MATIN); test: Post-emergence action against harmful plants; conditions: for pest or weed control at 80 g/ha / pest or weed control at 320 g/ha: Tripleurospermum inodorum, read-out: Herbicidal action MATIN; for pest or weed control at 320 g/ha / Herbicidal action MATIN: 320 g of a.i./ha; for Herbicidal action MATIN: Comparative Table 10
Protocol: as §1

[4] = system: Glycine max (soybean) (GLXMA); test: Post-emergence damage of crop plants; conditions: post-emergence application
Protocol: as §1

[5] = system: Galium aparine (GALAP); test: Post-emergence action against harmful plants; conditions: post-emergence application
Protocol: as §1

[6] = system: Viola tricolor (VIOTR); test: Post-emergence action against harmful plants; conditions: post-emergence application, 80 g of a.i./ha, Comparative Table 1
Protocol: as §1

[7] = system: Digitaria sanguinalis (DIGSA); test: Post-emergence action against harmful plants; conditions: post-emergence application, 80 g of a.i./ha, Comparative Table 1
Protocol: as §1

[8] = system: Echinochloa crus galli (ECHCG); test: Post-emergence action against harmful plants; conditions: post-emergence application
Protocol: as §1

[9] = system: Triticum aestivum (wheat) (TRZAS); test: Post-emergence damage of crop plants; conditions: post-emergence application, 320 g of a.i./ha, Comparative Table 6
Protocol: as §1

[10] = system: Oryza sativa (rice) (ORYSA); test: Damage of rice under paddy rice conditions; conditions: post-emergence application
Protocol: (§2) Rice plants and harmful plants typical in rice crops are grown in the greenhouse under paddy rice conditions (water level: 2-3 cm). After the treatment with the compounds according to the invention and the prior-art compounds, the test plants are placed in the greenhouse under optimum growth conditions and kept like this during the entire test. About three weeks after the application, evaluation is carried out by visual scoring of the damage to the plants.

[11] = system: Setaria viridis (SETVI); test: Action against harmful plants in the rice test; conditions: post-emergence application, 320 g of a.i./ha, Comparative Table 5
Protocol: as §2

[12] = system: Veronica persica (VERPE); test: Post-emergence action against harmful plants; conditions: post-emergence application
Protocol: as §1

[13] = system: Zea mays (corn) (ZEAMX); test: Pre-emergence damage of crop plants; conditions: pre-emergence application, 320 g of a.i./ha, Comparative Table 7
Excerpt: (§3) Seeds of monocotyledonous and dicotyledonous harmful plants and seeds of corn, soybean and wheat are placed into sandy loam in cardboard pots and covered with soil. The compounds according to the invention and the prior-art compounds, formulated as wettable powders or emulsion concentrates, are then applied to the surface of the covering soil as an aqueous suspension or emulsion at an application rate of 600 to 800 l of water/ha (converted) in one of the dosages given in tables 1 to 10. After the treatment, the pots are placed in a greenhouse and kept under good growth conditions for the harmful plants and crop plants. Visual scoring of plant or emergence damage is carried out after the test plants have emerged after an experimental period of 3 to 4 weeks.

[14] = system: Galium aparine (GALAP); test: Pre-emergence action against harmful plants; conditions: pre-emergence application, 320 g of a.i./ha, Comparative Table 7
Excerpt: as §3

[15] = system: Avena fatua (AVEFA); test: Post-emergence action against harmful plants; conditions: post-emergence application, 320 g of a.i./ha, Comparative Table 8
Protocol: as §1

[16] = system: Pharbitis purpureum (PHBPU); test: Post-emergence action against harmful plants; conditions: post-emergence application, 320 g of a.i./ha
Protocol: as §1

[17] = 80 g of a.i./ha, Comparative Table 4
[18] = 80 g of a.i./ha, Comparative Table 3
[19] = post-emergence application, 80 g of a.i./ha, Comparative Table 3
[20] = 80 g of a.i./ha, Comparative Table 1
[21] = post-emergence application, 80 g of a.i./ha, Comparative Table 1
[22] = 320 g of a.i./ha, Comparative Table 6
[23] = post-emergence application, Comparative Table 6
[24] = 320 g of a.i./ha, Comparative Table 5
[25] = 20 g of a.i./ha, Comparative Table 2
[26] = 320 g of a.i./ha, Comparative Table 8
[27] = post-emergence application, Comparative Table 8
[28] = 320 g of a.i./ha, Comparative Table 10
[29] = 320 g of a.i./ha, Comparative Table 9
[30] = post-emergence application, Comparative Table 9

SMILES: Cc1nn(C)c(O)c1C(=O)c1ccc(S(C)(=O)=O)c(N2CCCCC2)c1C [S5]
- Damage to the crop plants ZEAMX [1, 17]: 10%
- Herbicidal action STEME ([2]; Comparative Table 4): 20%
- pest or weed control at 80 g/ha ([3]; post-emergence application, 80 g of a.i./ha, Comparative Table 4): 40%

SMILES: C=CCNc1c(S(C)(=O)=O)ccc(C(=O)c2c(C)nn(C)c2O)c1C [S4]
- Damage to the crop plants ZEAMX [1, 18]: 30%
- Damage to the crop plants GLXMA [4, 18]: 50%
- Herbicidal action STEME ([2]; Comparative Table 3): 100%
- pest or weed control at 80 g/ha [3, 19]: 30%
- Herbicidal action GALAP [5, 18]: 80%

SMILES: Cc1c(C(=O)c2c(C3CC3)nn(C)c2O)ccc(S(C)(=O)=O)c1N1CCCCC1 [No. 15]
- Damage to the crop plants ZEAMX [1, 17]: 0%
- Herbicidal action STEME ([2]; Comparative Table 4): 70%
- pest or weed control at 80 g/ha ([3]; post-emergence): 60%

SMILES: CCCNc1c(S(C)(=O)=O)ccc(C(=O)c2c(C)nn(C)c2O)c1C [S2]
- Damage to the crop plants ZEAMX [1, 20]: 60%
- Herbicidal action VIOTR [6]: 80%
- pest or weed control at 80 g/ha [3, 21]: 30%
- Herbicidal action DIGSA [7]: 80%
- Herbicidal action ECHCG [8, 20]: 80%

SMILES: CCn1nc(C)c(C(=O)c2ccc(S(C)(=O)=O)c(N3CCCC3)c2C)c1O [S6]
- Damage to the crop plants TRZAS [9]: 10%
- Damage to the crop plants GLXMA [4, 22]: 20%
- pest or weed control at 320 g/ha [3, 23]: 0%
- Herbicidal action ECHCG [8, 22]: 50%
- Damage to the crop plants ORYSA [10, 24]: 20%
- Herbicidal action SETVI [11]: 90%

SMILES: CCCCNc1c(S(C)(=O)=O)ccc(C(=O)c2c(C3CC3)nn(C)c2O)c1C [No. 4]
- Damage to the crop plants GLXMA [4, 25]: 0%
- Herbicidal action VERPE [12, 25]: 60%
- Herbicidal action GALAP [5, 25]: 80%
- Damage to the crop plants ORYSA [10, 25]: 0%

SMILES: C=CCNc1c(S(C)(=O)=O)ccc(C(=O)c2c(C3CC3)nn(C)c2O)c1C [No. 5]
- Damage to the crop plants ZEAMX [1, 18]: 10%
- Damage to the crop plants GLXMA [4, 18]: 0%
- Herbicidal action STEME ([2]; Comparative Table 3): 100%
- pest or weed control at 80 g/ha [3, 19]: 50%
- Herbicidal action GALAP [5, 18]: 80%

SMILES: CCCNc1c(S(C)(=O)=O)ccc(C(=O)c2c(C3CC3)nn(C)c2O)c1C [No. 3]
- Damage to the crop plants ZEAMX [1, 20]: 30%
- Herbicidal action VIOTR [6]: 90%
- pest or weed control at 80 g/ha [3, 21]: 70%
- Herbicidal action DIGSA [7]: 90%
- Herbicidal action ECHCG [8, 20]: 90%

SMILES: COCCNc1c(S(C)(=O)=O)ccc(C(=O)c2c(C3CC3)nn(C)c2O)c1C [No. 9]
- Damage to the crop plants ZEAMX [13]: 0%
- Damage to the crop plants ZEAMX [1, 26]: 0%
- Damage to the crop plants GLXMA [4, 26]: 20%
- Herbicidal action GALAP [14]: 80%
- Herbicidal action AVEFA [15]: 70%
- pest or weed control at 320 g/ha [3, 27]: 80%

SMILES: CCn1nc(C)c(C(=O)c2ccc(S(C)(=O)=O)c(NCCOC)c2C)c1O [S7]
- Damage to the crop plants ZEAMX [13]: 20%
- Damage to the crop plants ZEAMX [1, 26]: 20%
- Damage to the crop plants ZEAMX [1, 28]: 20%
- Damage to the crop plants GLXMA [4, 26]: 60%
- Damage to the crop plants GLXMA [4, 28]: 60%
- Herbicidal action GALAP [14]: 70%
- Herbicidal action PHBPU ([16]; Comparative Table 10): 40%
- Herbicidal action AVEFA [15]: 50%
- pest or weed control at 320 g/ha [3, 27]: 70%
- Herbicidal action MATIN ([3]; post-emergence application): 70%
- Herbicidal action VERPE [12, 28]: 90%
- Herbicidal action ECHCG [8, 28]: 90%

SMILES: CCOCCNc1c(S(C)(=O)=O)ccc(C(=O)c2c(C3CC3)nn(C)c2O)c1C [No. 10]
- Damage to the crop plants ZEAMX [1, 28]: 0%
- Damage to the crop plants GLXMA [4, 29]: 20%
- Damage to the crop plants GLXMA [4, 28]: 20%
- Herbicidal action PHBPU ([16]; Comparative Table 9): 100%
- Herbicidal action PHBPU ([16]; Comparative Table 10): 100%
- pest or weed control at 320 g/ha [3, 30]: 100%
- Herbicidal action MATIN ([3]; post-emergence application): 100%
- Herbicidal action VERPE [12, 29]: 100%
- Herbicidal action VERPE [12, 28]: 100%
- Herbicidal action ECHCG [8, 28]: 100%

SMILES: CCOCCNc1c(S(C)(=O)=O)ccc(C(=O)c2c(C)nn(C)c2O)c1C [S1]
- Damage to the crop plants GLXMA [4, 29]: 90%
- Herbicidal action PHBPU ([16]; Comparative Table 9): 90%
- pest or weed control at 320 g/ha [3, 30]: 60%
- Herbicidal action VERPE [12, 29]: 100%

SMILES: CCCCNc1c(S(C)(=O)=O)ccc(C(=O)c2c(C)nn(C)c2O)c1C [S3]
- Damage to the crop plants GLXMA [4, 25]: 20%
- Herbicidal action VERPE [12, 25]: 20%
- Herbicidal action GALAP [5, 25]: 40%
- Damage to the crop plants ORYSA [10, 25]: 30%

SMILES: Cc1c(C(=O)c2c(C3CC3)nn(C)c2O)ccc(S(C)(=O)=O)c1N1CCCC1 [No. 14]
- Damage to the crop plants TRZAS [9]: 0%
- Damage to the crop plants GLXMA [4, 22]: 10%
- pest or weed control at 320 g/ha [3, 23]: 50%
- Herbicidal action ECHCG [8, 22]: 80%
- Damage to the crop plants ORYSA [10, 24]: 10%
- Herbicidal action SETVI [11]: 100%

Source: patent US7396939B2, “3-cyclopropyl-4-(3-amino-2-methylbenzoyl)pyrazoles and their use as herbicides” (Bayer CropScience GmbH, priority 2004, dated 2008)
